Results from patent US10487093B2, “Heterocyclic compounds, in particular 2-oxo-4,4,5,5,6,6,7,7-octahydrobenzoxazole derivatives, and their use as antibacterial compounds” (priority 2016, dated 2019).
≈ marks a conversion by molar mass, not a printed value. Where two headings read alike, the source gives them in different places.

Tests used:
[1] = tested on: Acinetobacter baumannii NCTC 13420; assay: MIC, broth microdilution (CLSI) versus planktonic bacteria; type: cell-based; conditions: Acinetobacter baumannii NCTC 13420, 16-20 h, mode of three independent experiments; for MIC: NCTC13420, read-out: MIC, Ab NCTC 13420
[2] = tested on: Acinetobacter baumannii ATCC 19606; assay: as above; type: cell-based; conditions: Acinetobacter baumannii ATCC 19606, 16-20 h, mode of three independent experiments; for MIC: ATCC19606, read-out: MIC, Ab ATCC 19606
[3] = tested on: Enterobacter cloacae NCTC 13406; assay: as above; type: cell-based; conditions: Enterobacter cloacae NCTC 13406, 16-20 h, mode of three independent experiments; for MIC: NCTC13406, read-out: MIC, Ecl NCTC 13406
[4] = tested on: Escherichia coli ATCC 25922; assay: as above; type: cell-based; conditions: Escherichia coli ATCC 25922, 16-20 h, mode of three independent experiments; for MIC: ATCC25922, read-out: MIC, Ec ATCC 25922
E. coli ATCC BAA-2452 = assay: as above; type: cell-based; conditions: Escherichia coli ATCC BAA-2452, 16-20 h, mode of three independent experiments; for MIC: read-out: MIC, Ec ATCC BAA 2452
E. coli NCTC 13476 = assay: as above; type: cell-based; conditions: Escherichia coli NCTC 13476, 16-20 h, mode of three independent experiments; for MIC: NCTC13476, read-out: MIC, Ec NCTC 13476
E. coli MG1655 = assay: as above; type: cell-based, Escherichia coli; conditions: for MIC: Escherichia coli, MG1655, read-out: MIC, Ec MG1655 WT
[5] = tested on: Haemophilus influenzae ATCC 49247; assay: as above; type: cell-based; conditions: Haemophilus influenzae ATCC 49247, 16-20 h, mode of three independent experiments; for MIC: ATCC49247, read-out: MIC, Hi ATCC 49247
[6] = tested on: Pseudomonas aeruginosa ATCC 27853; assay: as above; type: cell-based; conditions: Pseudomonas aeruginosa ATCC 27853, 16-20 h, mode of three independent experiments; for MIC: ATCC27853, read-out: MIC, Pa ATCC 27853
[7] = tested on: Staphylococcus aureus ATCC 29213; assay: as above; type: cell-based; conditions: Staphylococcus aureus ATCC 29213, 16-20 h, mode of three independent experiments; for MIC: ATCC29213, read-out: MIC, Sa ATCC 29213
[8] = tested on: Enterococcus faecalis ATCC 29212; assay: as above; type: cell-based; conditions: ATCC29212, 16-20 h, mode of three independent experiments, read-out: MIC, Ef ATCC 29212
[9] = tested on: Streptococcus pneumoniae ATCC 49619; assay: as above; type: cell-based; conditions: Streptococcus pneumoniae ATCC 49619, 16-20 h, mode of three independent experiments; for MIC: ATCC49619, read-out: MIC, Sp ATCC 49619
E. coli MG1655 S83L = type: cell-based, Escherichia coli
E. coli MG1655 D87G = type: cell-based, Escherichia coli
[10] = tested on: human hepatic cell line (HepG2 ATCC HB-8065); assay: Human cell viability assay (CellTiter-Glo); conditions: for IC50: Homo sapiens, HepG2, 24 h, read-out: IC50 (μg/mL) HepG2
[11] = compared to the isogenic parent strain E. coli MG1655, S83L mutation on DNA gyrase subunit GyrA
[12] = compared to the isogenic parent strain E. coli MG1655, D87G mutation on DNA gyrase subunit GyrA

Molecule | MIC [1] | MIC [2] | MIC [3] | MIC [4] | MIC (E. coli ATCC BAA-2452) | MIC (E. coli NCTC 13476) | MIC (E. coli MG1655) | MIC [5] | MIC [6] | MIC [7] | MIC [9] | Fold increase in MIC, E. coli MG1655 S83L (E. coli MG1655 S83L; [11]) | Fold increase in MIC, E. coli MG1655 D87G (E. coli MG1655 D87G; [12]) | IC50 [10] | also measured
N#Cc1ccc2ccc(=O)n(CCCN[C@H]3CC[C@H]4[C@H](C3)OC(=O)N4c3ccc4c(n3)NC(=O)CO4)c2c1 [Compound 60, 1-(3-{[(3aS,6S,7aS)-2-oxo-3-{3-oxo-2H,3H,4H-pyrido[3,2-b][1,4]oxazin-6-yl}-octahydro-1,3-benzoxazol-6-yl]amino}propyl)-2-oxo-1,2-dihydroquinoline-7-carbonitrile] | < 1 µg/mL | < 1 µg/mL | < 1 µg/mL | < 1 µg/mL | < 1 µg/mL | < 1 µg/mL | < 1 µg/mL | < 1 µg/mL | < 1 µg/mL | < 1 µg/mL | < 1 µg/mL | 4 fold | 2 fold | 10 to 100 µg/mL (≈ 19.4 to 194 µM) | MIC [8]: < 1 µg/mL
COc1ccc2ccc(=O)n(CCN[C@@H]3CC[C@@H]4[C@@H](C3)OC(=O)N4c3ncc4c(n3)NC(=O)CO4)c2n1 [Compound 44, 1-(2-{[(3aR,6R,7aR)-2-oxo-3-{7-oxo-6H,7H,8H-pyrimido[5,4-b][1,4]oxazin-2-yl}-octahydro-1,3-benzoxazol-6-yl]amino}ethyl)-7-methoxy-1,2-dihydro-1,8-naphthyridin-2-one] | < 1 µg/mL | < 1 µg/mL | < 1 µg/mL | < 1 µg/mL | < 1 µg/mL | 1 to 10 µg/mL (≈ 1.97 to 19.7 µM) | < 1 µg/mL | < 1 µg/mL | 1 to 10 µg/mL (≈ 1.97 to 19.7 µM) | < 1 µg/mL | < 1 µg/mL | 2 fold | 2 fold | > 100 µg/mL | 
NCCCOc1ccc2ccc(=O)n(CCN[C@@H]3CC[C@@H]4[C@@H](C3)OC(=O)N4c3ccc4c(n3)NC(=O)CO4)c2c1 [Compound 3, 1-(2-{[(3aR,6R,7aR)-2-oxo-3-{3-oxo-2H,3H,4H-pyrido[3,2-b][1,4]oxazin-6-yl}-octahydro-1,3-benzoxazol-6-yl]amino}ethyl)-7-(3-aminopropoxy)-1,2-dihydroquinolin-2-one] | 10 to 100 µg/mL (≈ 18.2 to 182 µM) | > 100 µg/mL | 10 to 100 µg/mL (≈ 18.2 to 182 µM) | 1 to 10 µg/mL (≈ 1.82 to 18.2 µM) |  |  |  | 10 to 100 µg/mL (≈ 18.2 to 182 µM) | 1 to 10 µg/mL (≈ 1.82 to 18.2 µM) | < 1 µg/mL |  |  |  | > 100 µg/mL | MIC [8]: < 1 µg/mL
COc1ccc2ncc(=O)n(CCN[C@H]3CC[C@H]4[C@@H](C3)OC(=O)N4c3ccc4c(n3)NC(=O)CO4)c2n1 [Compound 35, (3aS,6S,7aR)-6-[(2-{6-methoxy-3-oxo-3H,4H-pyrido[2,3-b]pyrazin-4-yl}ethyl)amino]-3-{3-oxo-2H,3H,4H-pyrido[3,2-b][1,4]oxazin-6-yl}-octahydro-1,3-benzoxazol-2-one] | < 1 µg/mL | < 1 µg/mL | < 1 µg/mL | < 1 µg/mL | < 1 µg/mL | < 1 µg/mL | < 1 µg/mL | < 1 µg/mL | < 1 µg/mL | < 1 µg/mL | < 1 µg/mL | 1 fold | 2 fold | > 100 µg/mL | 
O=C1COc2ccc(N3C(=O)O[C@H]4C[C@@H](NCCn5c(=O)ccc6nccnc65)CC[C@@H]43)nc2N1 [Compound 100, (3aS,6S,7aS)-3-{3-oxo-2H,3H,4H-pyrido[3,2-b][1,4]oxazin-6-yl}-6-[(2-{6-oxo-5H,6H-pyrido[2,3-b]pyrazin-5-yl}ethyl)amino]-octahydro-1,3-benzoxazol-2-one] | < 1 µg/mL | 1 to 10 µg/mL (≈ 2.09 to 20.9 µM) | 1 to 10 µg/mL (≈ 2.09 to 20.9 µM) | < 1 µg/mL | 1 to 10 µg/mL (≈ 2.09 to 20.9 µM) | 1 to 10 µg/mL (≈ 2.09 to 20.9 µM) | < 1 µg/mL | < 1 µg/mL | 10 to 100 µg/mL (≈ 20.9 to 209 µM) | < 1 µg/mL | < 1 µg/mL | 1 fold | 1 fold | > 100 µg/mL | 
CN(CCn1c(=O)ccc2ccc(C#N)cc21)[C@H]1CC[C@H]2[C@@H](C1)OC(=O)N2c1ccc2c(n1)NC(=O)CO2 [Compound 47, 1-(2-{[(3aS,6S,7aR)-2-oxo-3-{3-oxo-2H,3H,4H-pyrido[3,2-b][1,4]oxazin-6-yl}-octahydro-1,3-benzoxazol-6-yl](methyl)amino}ethyl)-2-oxo-1,2-dihydroquinoline-7-carbonitrile] | < 1 µg/mL | < 1 µg/mL | < 1 µg/mL | < 1 µg/mL | < 1 µg/mL | 1 to 10 µg/mL (≈ 1.94 to 19.4 µM) | < 1 µg/mL | < 1 µg/mL | < 1 µg/mL | < 1 µg/mL | < 1 µg/mL | 2 fold | 1 fold | 10 to 100 µg/mL (≈ 19.4 to 194 µM) | 
1-[(2S)-3-{[(3aR,6R,7aR)-2-oxo-3-{3-oxo-2H,3H,4H-pyrido[3,2-b][1,4]oxazin-6-yl}-octahydro-1,3-benzoxazol-6-yl]amino}-2-hydroxypropyl]-7-fluoro-1,2-dihydroquinoxalin-2-one & 1-[(2R)-3-{[(3aR,6R,7aR)-2-oxo-3-{3-oxo-2H,3H,4H-pyrido[3,2-b][1,4]oxazin-6-yl}-octahydro-1,3-benzoxazol-6-yl]amino}-2-hydroxypropyl]-7-fluoro-1,2-dihydroquinoxalin-2-one [Compound 94] |  |  |  |  |  |  |  |  |  |  |  |  |  |  | MIC, Ab NCTC 13420 [1]: B (a MIC of from 1 to 10 is assigned the letter B); MIC, Ab ATCC 19606 [2]: B (a MIC of from 1 to 10 is assigned the letter B); MIC, Ecl NCTC 13406 [3]: B (a MIC of from 1 to 10 is assigned the letter B); MIC, Ec ATCC 25922 [4]: A (an MIC (in μg/mL) of less or equal to 1 is assigned the letter A); MIC, Ec ATCC BAA 2452 (E. coli ATCC BAA-2452): A (an MIC (in μg/mL) of less or equal to 1 is assigned the letter A); MIC, Ec NCTC 13476 (E. coli NCTC 13476): A (an MIC (in μg/mL) of less or equal to 1 is assigned the letter A); MIC, Ec MG1655 WT (E. coli MG1655; Escherichia coli MG1655 WT, 16-20 h, mode of three independent experiments): A (an MIC (in μg/mL) of less or equal to 1 is assigned the letter A); MIC, Hi ATCC 49247 [5]: A (an MIC (in μg/mL) of less or equal to 1 is assigned the letter A); MIC, Pa ATCC 27853 [6]: B (a MIC of from 1 to 10 is assigned the letter B); MIC, Sa ATCC 29213 [7]: A (an MIC (in μg/mL) of less or equal to 1 is assigned the letter A); MIC, Sp ATCC 49619 [9]: A (an MIC (in μg/mL) of less or equal to 1 is assigned the letter A); Fold increase in MIC, E. coli MG1655 S83L (E. coli MG1655 S83L): 1 fold; Fold increase in MIC, E. coli MG1655 D87G (E. coli MG1655 D87G): 2 fold; IC50 (μg/mL) HepG2 ([10]; HepG2 cell viability, 24 h, CellTiter-Glo): A (an IC50 of over 100 is assigned the letter A)
COc1cnc2ccc(=O)n(CCN[C@@H]3CC[C@@H]4[C@@H](C3)OC(=O)N4c3ccc4c(n3)NC(=O)CO4)c2c1 [Compound 69, 1-(2-{[(3aR,6R,7aR)-2-oxo-3-{3-oxo-2H,3H,4H-pyrido[3,2-b][1,4]oxazin-6-yl}-octahydro-1,3-benzoxazol-6-yl]amino}ethyl)-7-methoxy-1,2-dihydro-1,5-naphthyridin-2-one] | < 1 µg/mL | < 1 µg/mL | < 1 µg/mL | < 1 µg/mL | < 1 µg/mL | < 1 µg/mL | < 1 µg/mL | < 1 µg/mL | 1 to 10 µg/mL (≈ 1.97 to 19.7 µM) | < 1 µg/mL | < 1 µg/mL | 1 fold | 1 fold | > 100 µg/mL | 
